Consider ten molecules from patent publication US20240373852A1, “COMPOSITION FOR ALLEVIATING DROUGHT STRESS COMPRISING AMINO ACID” (CJ CheilJedang Corporation, priority 2022, published 2024).

In the experiment the test system is Arabidopsis thaliana. Put plainly: Drought stress alleviation plate assay, single amino acid spray on Arabidopsis thaliana seedlings on PEG-treated medium. The experiment is classed as in vivo. Particulars: for growth and development of above- and below-ground tissues (fresh weight of above-ground tissues, root length): drought stress-induced medium (PEG 20% treated), amino acid aqueous solution 0.05% (w/w) or 0.1% (w/w) sprayed 1 ml/plate, 3 days intervals, 4 times, compared to water or A company's product (AP); for function in alleviating drought stress and promoting plant growth: laboratory condition (plate assay), conclusion from Example 1-2 and 1-3. The text has this:
In order to select an individual amino acid having function in alleviating drought stress among 20 kinds of amino acids (histidine, sodium glutamate, proline, threonine, tryptophan, valine, alanine, arginine, asparagine, aspartic acid, cysteine, glutamine, glycine, leucine, lysine, methionine, phenylalanine, serine, or tyrosine), Arabidopsis thaliana was trans-planted in drought stress-induced medium, and an amino acid aqueous solution comprising each amino acid (0.05% (w/w) or 0.1% (w/w)) was treated, then the fresh weight of the above-ground tissue and growth and development of the root (main root) of Arabidopsis thaliana were investigated.
Arabidopsis thaliana seeds (provided by Konkuk University plant development genomics lab) were put in a 2% Sodium hypochlorite, 0.05% Tween 20 solution and sterilized for 1 minute, then washed with water 4 times. The sterilized seeds were incubated in dark and cold (4 degrees) for 3 days.
Arabidopsis thaliana seeds were sown in a plant growth medium (½ MS; Murashige and Skoog Medium, Duchefa Biochem), and grow for 6 days in the growth chamber. The growth condition of plants is as follows: • Temperature: 23° C.; humidity: 60˜65%; light: light 16 hours/dark 8 hours
The drought stress-induced medium was prepared by the method as below.
After 24 hours, the PEG solution was removed and dried at a room temperature under a sterile condition.
6 days-old Arabidopsis thaliana seedlings grown in normal plant growth medium were transferred to the drought stress-induced medium (PEG 20% treated) or a control medium (PEG untreated).
Immediately after transfer seedlings on the drought-stress induced medium, an individual amino acid aqueous solution (0.05% (w/w) or 0.1% (w/w)) was sprayed on the plants; 1 ml/plate, 3 days intervals, for 4 times. As a control group, instead of the amino acid aqueous solution, water (DW, distilled water) or A company's drought stress-alleviating product (AP product, comprising Pro 9%, MSG 2.5%, Asp 0.9%) (Ajinomoto Fertilizers, Amino proline) was sprayed by the same method.
After that, the fresh weight, and root growth and development of Arabidopsis thaliana were investigated.

With `C[C@H](N)C(=O)O` [alanine], the “growth and development of above- and below-ground tissues (fresh weight of above-ground tissues, root length)” value (from here on “growth and development”) is “excellent”; the “function in alleviating drought stress and promoting plant growth” value (“function” for short) is reported as “positive function”.

As to `N[C@@H](CC(=O)O)C(=O)O` [aspartic acid], the “growth and development” value is on record as “excellent”; the “function” value is reported as “positive function”.

Consider `N[C@@H](Cc1ccccc1)C(=O)O` [phenylalanine], for which the “growth and development” value was “excellent”; the “function” value was “positive function”.

Take `N=C(N)NCCC[C@H](N)C(=O)O` [arginine]: the “growth and development” value was “excellent”; the “function” value is listed as “positive function”.

As to `N[C@@H](CCC(=O)[O-])C(=O)[O-].[Na+].[Na+]` [sodium glutamate], the “growth and development” value is given as “excellent”; the “function” value is reported as “positive function”.

For `CC(C)[C@H](N)C(=O)O` [valine], the “growth and development” value is reported as “excellent”.

On to `NC(=O)CC[C@H](N)C(=O)O` [glutamine], for which the “growth and development” value is on record as “excellent”; the “function” value is “positive function”.

With `NCC(=O)O` [glycine], the “growth and development” value is recorded as “excellent”; the “function” value was “positive function”.

For the molecule `N[C@@H](Cc1c[nH]cn1)C(=O)O` [histidine], the “growth and development” value was “excellent”; the “function” value is given as “positive function”.

With `N[C@@H](Cc1c[nH]c2ccccc12)C(=O)O` [tryptophan], the “growth and development” value is “excellent”; the “function” value was “positive function”.
